ChEMBL document CHEMBL1201862, “PubChem BioAssay data set” (2004)
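Protocol summary: plate cells (96-well), add compound at 5 concentrations, incubate 48 h, interpolate endpoints linearly. The concentration for 50% growth inhibition is given as GI50.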 Activity calls are given as the source filed them. Rule as the data show it: active = GI50 up to about 1.1 µM and inactive = higher.

How the values were obtained:
Experiment in all cases: inhibition of tumour cell growth, NCI panel, 48 h
SNB-19 = system: SNB-19
SK-MEL-5 = system: SK-MEL-5
RXF 393 = system: RXF 393
M14 = system: M14
UACC-62 = system: UACC-62
OVCAR-5 = system: OVCAR-5
UACC-257 = system: UACC-257
NCI-H460 = system: NCI-H460
NCI-H522 = system: NCI-H522
HT-29 = system: HT-29
NCI-H226 = system: NCI-H226
NCI/ADR-RES = system: NCI/ADR-RES
786-0 = system: 786-0
SK-MEL-2 = system: SK-MEL-2
RPMI-8226 = system: RPMI-8226
LOX IMVI = system: LOX IMVI
SR = system: SR
OVCAR-4 = system: OVCAR-4
BT-549 = system: BT-549
KM12 = system: KM12
SK-OV-3 = system: SK-OV-3
MCF7 = system: MCF7
T47D = system: T47D
CCRF-CEM = system: CCRF-CEM
HCT-116 = system: HCT-116
SNB-75 = system: SNB-75
SF-539 = system: SF-539
SK-MEL-28 = system: SK-MEL-28
K562 = system: K562
A549 = system: A549
MOLT-4 = system: MOLT-4
UO-31 = system: UO-31
SN12C = system: SN12C
HL-60 = system: HL-60
PC-3 = system: PC-3
ACHN = system: ACHN
OVCAR-8 = system: OVCAR-8
MDA-MB-435 = system: MDA-MB-435
SF-268 = system: SF-268
HOP-62 = system: HOP-62
DU-145 = system: DU-145
SF-295 = system: SF-295
MDA-MB-231 = system: MDA-MB-231
U-251 = system: U-251
Hs-578T = system: Hs-578T
SW-620 = system: SW-620
TK-10 = system: TK-10
HOP-92 = system: HOP-92
HCT-15 = system: HCT-15
Malme-3M = system: Malme-3M
NCI-H23 = system: NCI-H23
A498 = system: A498
CAKI-1 = system: CAKI-1
MDA-N = system: MDA-N
EKVX = system: EKVX
COLO 205 = system: COLO 205
IGROV-1 = system: IGROV-1
HCC 2998 = system: HCC 2998
OVCAR-3 = system: OVCAR-3

Measured: GI50

O=[N+]([O-])c1c(F)c(F)c2c(c1F)Nc1ccccc1S2
4.83 µM: HCT-15
inactive: SNB-19 7.23 µM | SK-MEL-5 11.6 µM | RXF 393 2.25 µM | M14 3.64 µM | UACC-62 5.61 µM | OVCAR-5 13 µM | UACC-257 1.49 µM | NCI-H460 6 µM | NCI-H522 4.68 µM | HT-29 2.07 µM | NCI-H226 16.9 µM | NCI/ADR-RES 25.9 µM | 786-0 8.24 µM | SK-MEL-2 2.14 µM | RPMI-8226 4.7 µM | LOX IMVI 1.86 µM | SR 2.62 µM | OVCAR-4 2.58 µM | BT-549 11 µM | KM12 4.49 µM | SK-OV-3 18.2 µM | MCF7 5 µM | T47D 3.03 µM | CCRF-CEM 2.69 µM | HCT-116 2.47 µM | SNB-75 17.3 µM | SF-539 20.6 µM | SK-MEL-28 2.51 µM | K562 2.87 µM | A549 19.2 µM | MOLT-4 2.61 µM | UO-31 18.2 µM | SN12C 3.38 µM | HL-60 4.29 µM | PC-3 9.16 µM | ACHN 15.7 µM | OVCAR-8 1.96 µM | MDA-MB-435 4.81 µM | SF-268 2.49 µM | HOP-62 12.6 µM | DU-145 4.06 µM | SF-295 17.3 µM | MDA-MB-231 2.27 µM | U-251 2.05 µM | Hs-578T 7.1 µM | SW-620 2.77 µM | TK-10 23.8 µM | HOP-92 15.2 µM | Malme-3M 5.55 µM | NCI-H23 2.63 µM | A498 16.4 µM | CAKI-1 3.99 µM | MDA-N 4.42 µM | EKVX 6.44 µM | COLO 205 13.9 µM | IGROV-1 3.08 µM | HCC 2998 2.76 µM | OVCAR-3 2.03 µM

CCc1c(-c2ccc(OC)cc2)c(=O)oc2cc(O)ccc12
inactive: SNB-19 56.1 µM | SK-MEL-5 14.8 µM | RXF 393 54.5 µM | M14 23.9 µM | UACC-62 19.4 µM | OVCAR-5 > 100 µM | UACC-257 25.9 µM | NCI-H460 23.9 µM | NCI-H522 29.5 µM | HT-29 40.7 µM | NCI-H226 56.6 µM | NCI/ADR-RES 22.1 µM | 786-0 51.2 µM | SK-MEL-2 > 100 µM | RPMI-8226 18.6 µM | LOX IMVI 30.1 µM | SR 16.7 µM | OVCAR-4 33.8 µM | BT-549 25.1 µM | KM12 37.2 µM | MCF7 32.7 µM | T47D 30.6 µM | CCRF-CEM 27.4 µM | HCT-116 36.5 µM | SNB-75 73.3 µM | SF-539 44.1 µM | SK-MEL-28 36.7 µM | K562 29.8 µM | A549 27.3 µM | MOLT-4 16 µM | UO-31 19.9 µM | SN12C 35.9 µM | HL-60 16.7 µM | PC-3 24.7 µM | ACHN 27.7 µM | OVCAR-8 49.1 µM | MDA-MB-435 27.6 µM | SF-268 41.5 µM | HOP-62 54 µM | DU-145 33.2 µM | SF-295 35.6 µM | MDA-MB-231 57.5 µM | U-251 38.4 µM | Hs-578T 30.7 µM | SW-620 51.3 µM | HOP-92 75.9 µM | Malme-3M 25.5 µM | NCI-H23 49.1 µM | A498 22.6 µM | CAKI-1 39.3 µM | MDA-N 28.1 µM | EKVX 29.4 µM | COLO 205 28.2 µM | IGROV-1 42.4 µM | HCC 2998 72.3 µM | OVCAR-3 28.4 µM
25.9 µM: HCT-15

Cc1nc2c(-c3ccccc3)[nH]c(C)c2c(=O)o1
inactive: SNB-19 > 100 µM | SK-MEL-5 13.1 µM | RXF 393 35.9 µM | M14 53.1 µM | UACC-62 23.9 µM | OVCAR-5 > 100 µM | UACC-257 > 100 µM | NCI-H460 > 100 µM | NCI-H522 19.7 µM | HT-29 39.4 µM | NCI-H226 87.5 µM | NCI/ADR-RES > 100 µM | 786-0 61.8 µM | SK-MEL-2 46.7 µM | RPMI-8226 32.7 µM | LOX IMVI 42.5 µM | SR > 100 µM | OVCAR-4 70.1 µM | BT-549 24.8 µM | KM12 > 100 µM | SK-OV-3 49.9 µM | MCF7 1.39 µM | T47D 44.2 µM | CCRF-CEM > 100 µM | HCT-116 45.6 µM | SNB-75 23.9 µM | SF-539 56.5 µM | SK-MEL-28 > 100 µM | K562 40.1 µM | A549 65.2 µM | MOLT-4 52.5 µM | UO-31 4.94 µM | SN12C > 100 µM | HL-60 15.7 µM | PC-3 > 100 µM | ACHN 43.8 µM | OVCAR-8 41.5 µM | MDA-MB-435 46.2 µM | SF-268 15.5 µM | HOP-62 33.3 µM | DU-145 76.2 µM | SF-295 79.6 µM | MDA-MB-231 31.2 µM | U-251 34.9 µM | Hs-578T > 100 µM | SW-620 > 100 µM | TK-10 > 100 µM | HOP-92 > 100 µM | NCI-H23 57.7 µM | A498 22.1 µM | CAKI-1 37.2 µM | MDA-N 45.6 µM | EKVX > 100 µM | COLO 205 58.3 µM | IGROV-1 80.5 µM | HCC 2998 57.5 µM
30.8 µM: HCT-15

CC[C@@]1(O)C(=O)OCc2c1cc1n(c2=O)Cc2c-1nc1ccccc1c2/C=N\NC(=O)C1CCCN1 (some centres not stated)
inactive: OVCAR-5 4.93 µM | UACC-257 3.01 µM | HT-29 1.15 µM | SK-MEL-2 11.8 µM | OVCAR-4 19.6 µM | BT-549 1.49 µM | KM12 3.11 µM | SK-MEL-28 6.58 µM | PC-3 2.47 µM | MDA-MB-435 2 µM | MDA-MB-231 14.7 µM | Hs-578T 22.5 µM | TK-10 19.4 µM | Malme-3M 1.79 µM | MDA-N 1.8 µM | EKVX 9.55 µM | COLO 205 6.05 µM | IGROV-1 5.2 µM | HCC 2998 1.98 µM | OVCAR-3 4.42 µM
active: SNB-19 < 0.0209 µM | SK-MEL-5 0.238 µM | RXF 393 0.364 µM | M14 0.147 µM | UACC-62 < 0.0182 µM | NCI-H460 0.266 µM | NCI-H522 0.282 µM | NCI-H226 0.117 µM | NCI/ADR-RES 0.513 µM | 786-0 0.0461 µM | RPMI-8226 0.818 µM | LOX IMVI 0.09 µM | SR < 0.01 µM | SK-OV-3 0.442 µM | MCF7 < 0.0177 µM | T47D 0.0135 µM | HCT-116 0.354 µM | SNB-75 0.104 µM | SF-539 < 0.01 µM | K562 0.163 µM | A549 0.826 µM | MOLT-4 0.221 µM | UO-31 0.457 µM | SN12C 0.0275 µM | HL-60 0.046 µM | ACHN 0.0283 µM | OVCAR-8 0.258 µM | SF-268 < 0.0225 µM | HOP-62 < 0.0196 µM | DU-145 0.133 µM | SF-295 0.386 µM | U-251 0.0362 µM | SW-620 0.185 µM | HOP-92 0.601 µM | NCI-H23 0.0509 µM | A498 0.435 µM | CAKI-1 0.254 µM
1.31 µM: HCT-15

CC[C@@H]([C@H](O)c1ccccc1Cl)[N+](=O)[O-]
1.33 µM: HCT-15
active: SR 0.324 µM
inactive: SNB-19 > 100 µM | SK-MEL-5 > 100 µM | RXF 393 > 100 µM | M14 > 100 µM | UACC-62 > 100 µM | OVCAR-5 > 100 µM | UACC-257 > 100 µM | NCI-H460 > 100 µM | NCI-H522 90.4 µM | HT-29 > 100 µM | NCI-H226 > 100 µM | NCI/ADR-RES > 100 µM | 786-0 > 100 µM | SK-MEL-2 > 100 µM | RPMI-8226 91.8 µM | LOX IMVI > 100 µM | OVCAR-4 > 100 µM | BT-549 > 100 µM | KM12 > 100 µM | SK-OV-3 > 100 µM | MCF7 16.4 µM | T47D > 100 µM | CCRF-CEM 19.2 µM | HCT-116 4.25 µM | SNB-75 65.6 µM | SF-539 59 µM | SK-MEL-28 > 100 µM | A549 > 100 µM | UO-31 > 100 µM | SN12C > 100 µM | HL-60 7.82 µM | PC-3 61.4 µM | ACHN > 100 µM | OVCAR-8 > 100 µM | MDA-MB-435 25.8 µM | SF-268 > 100 µM | HOP-62 54.6 µM | DU-145 > 100 µM | SF-295 > 100 µM | MDA-MB-231 > 100 µM | U-251 > 100 µM | Hs-578T > 100 µM | SW-620 42.9 µM | TK-10 > 100 µM | HOP-92 > 100 µM | NCI-H23 > 100 µM | A498 > 100 µM | CAKI-1 > 100 µM | MDA-N 2.35 µM | EKVX > 100 µM | COLO 205 > 100 µM | IGROV-1 > 100 µM | HCC 2998 > 100 µM | OVCAR-3 > 100 µM
